Results from ChEMBL document CHEMBL5113438, “Discovery of highly potent and selective CRBN-recruiting EGFRL858R/T790M degraders in vivo” (Eur J Med Chem, 2022).
pIC50: −log10 of the molar value. Active and inactive are the calls of the source. The rule behind the calls is not given here.

Legend:
[1] = test system: A549; assay: Antiproliferative activity against human A549 cells expressing wild type EGFR incubated for 72 hrs by CCK-8 assay; assay type: functional, cell-based; settings: A549, 72 h
[2] = test system: HMEC; assay: Cytotoxicity activity against HMEC cells upto 300 uM incubated for 72 hrs by CCK-8 assay; assay type: toxicity, cell-based; settings: human
[3] = test system: HEK-293T; assay: Cytotoxicity activity against HEK293T cells upto 300 uM incubated for 72 hrs by CCK-8 assay; assay type: toxicity, cell-based; settings: human
[4] = test system: Epidermal growth factor receptor (Homo sapiens), P00533 [L858R,T790M]; assay: Inhibition of EGFR L858R/T790M mutant phosphorylation in human NCI-H1975 cells preincubated under serum starvation for 8 hrs followed by compound addition measured after 48 hrs by Western blot analysis; assay type: cell-based; settings: dose 10-1000 nM, DDE = dose-dependent effect
[5] = target: Serine/threonine-protein kinase AKT (Homo sapiens) (UniProt P31751+Q9Y243+P31749); assay: Inhibition of Akt phosphorylation in human NCI-H1975 cells preincubated under serum starvation for 8 hrs followed by compound addition measured after 48 hrs by Western blot analysis; assay type: cell-based; settings: dose 10-1000 nM, DDE = dose-dependent effect
[6] = target: Protein cereblon/Epidermal growth factor receptor (Homo sapiens) (UniProt P00533+Q96SW2); assay: Protac activity at CRBN/EGFR in human NCI-H1975 cells assessed as induction of EGFR degradation pretreated for 12 hrs followed by compound washout and replaced with fresh medium for 1 hr and measured after 48 hrs post compound washout by Western blot analysis; assay type: cell-based
[7] = test system: NCI-H1975; assay: Induction of apoptosis in human NCI-H1975 cells assessed as early apoptotic cells at 0.1 uM incubated for 48 hrs by AnnexinV-FITC/propidium iodide staining based flow cytometry analysis (reference value: 0.11 % ); assay type: functional
[8] = test system: NCI-H1299; assay: Induction of apoptosis in human NCI-H1299 cells assessed as early apoptotic cells at 0.1 uM incubated for 48 hrs by AnnexinV-FITC/propidium iodide staining based flow cytometry analysis (reference value: 0.11 % ); assay type: functional
[9] = test system: NCI-H1975; assay: Induction of cell cycle arrest in human NCI-H1975 cells assessed as accumulation of cells in G2/M phase by PI staining based flow cytometry method; assay type: functional; settings: dose 0.1-1 µM, DDE = dose-dependent effect
[10] = Toxicity in BALB/c mouse xenografted with human NCI-H1975 cells assessed as change in body weight pretreated with compound at 10 mg/kg, ip administered once daily for 24 days and measured every 3 days […]; assay type: organism-based; settings: in vivo, 576 h, time 24 day
[11] = AUC (0 to t) in Sprague-Dawley rat at 1 mg/kg, iv measured upto 24 hrs by LC-MS/MS analysis; assay type: ADME, organism-based; design: time < 24 hrs, dose 1 mg/kg, route iv; settings: in vivo
[12] = AUC (0 to infinity) in Sprague-Dawley rat at 10 mg/kg, ip measured upto 24 hrs by LC-MS/MS analysis; assay type: ADME, organism-based; design: time < 24 hrs, dose 10 mg/kg, route ip; settings: in vivo
[13] = Volume of distribution at steady state in Sprague-Dawley rat at 1 mg/kg, iv measured upto 24 hrs by LC-MS/MS analysis; assay type: ADME, organism-based; settings: in vivo, read-out: Vdss

Sequence of Serine/threonine-protein kinase AKT (Homo sapiens) (P31749 whole entry, looked up): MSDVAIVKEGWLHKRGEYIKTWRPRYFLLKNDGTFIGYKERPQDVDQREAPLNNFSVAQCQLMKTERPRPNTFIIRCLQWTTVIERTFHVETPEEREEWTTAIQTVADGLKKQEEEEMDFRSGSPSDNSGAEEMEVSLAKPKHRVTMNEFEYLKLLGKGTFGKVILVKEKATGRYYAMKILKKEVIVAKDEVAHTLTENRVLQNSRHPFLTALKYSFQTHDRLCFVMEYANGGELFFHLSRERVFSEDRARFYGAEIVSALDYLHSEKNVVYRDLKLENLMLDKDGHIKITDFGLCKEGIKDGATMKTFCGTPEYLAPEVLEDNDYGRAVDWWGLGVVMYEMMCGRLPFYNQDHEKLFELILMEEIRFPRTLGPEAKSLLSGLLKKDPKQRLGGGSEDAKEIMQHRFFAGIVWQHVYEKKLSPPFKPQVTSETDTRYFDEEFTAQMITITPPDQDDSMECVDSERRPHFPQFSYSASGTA
Sequence of Serine/threonine-protein kinase AKT (Homo sapiens) (P31751 whole entry, looked up): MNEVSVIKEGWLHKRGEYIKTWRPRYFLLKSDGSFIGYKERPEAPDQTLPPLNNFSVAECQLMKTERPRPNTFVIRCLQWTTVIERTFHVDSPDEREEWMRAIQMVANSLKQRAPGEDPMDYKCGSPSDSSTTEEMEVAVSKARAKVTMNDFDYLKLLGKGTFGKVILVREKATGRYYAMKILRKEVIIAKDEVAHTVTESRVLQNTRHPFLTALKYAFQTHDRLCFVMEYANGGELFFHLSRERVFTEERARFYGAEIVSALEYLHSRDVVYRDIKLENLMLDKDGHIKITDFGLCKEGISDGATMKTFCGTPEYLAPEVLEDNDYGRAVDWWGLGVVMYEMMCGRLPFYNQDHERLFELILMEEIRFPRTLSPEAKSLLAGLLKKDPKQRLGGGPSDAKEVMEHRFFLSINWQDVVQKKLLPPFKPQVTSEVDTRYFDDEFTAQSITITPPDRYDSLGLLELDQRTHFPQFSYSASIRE
Sequence of Serine/threonine-protein kinase AKT (Homo sapiens) (Q9Y243 whole entry, looked up): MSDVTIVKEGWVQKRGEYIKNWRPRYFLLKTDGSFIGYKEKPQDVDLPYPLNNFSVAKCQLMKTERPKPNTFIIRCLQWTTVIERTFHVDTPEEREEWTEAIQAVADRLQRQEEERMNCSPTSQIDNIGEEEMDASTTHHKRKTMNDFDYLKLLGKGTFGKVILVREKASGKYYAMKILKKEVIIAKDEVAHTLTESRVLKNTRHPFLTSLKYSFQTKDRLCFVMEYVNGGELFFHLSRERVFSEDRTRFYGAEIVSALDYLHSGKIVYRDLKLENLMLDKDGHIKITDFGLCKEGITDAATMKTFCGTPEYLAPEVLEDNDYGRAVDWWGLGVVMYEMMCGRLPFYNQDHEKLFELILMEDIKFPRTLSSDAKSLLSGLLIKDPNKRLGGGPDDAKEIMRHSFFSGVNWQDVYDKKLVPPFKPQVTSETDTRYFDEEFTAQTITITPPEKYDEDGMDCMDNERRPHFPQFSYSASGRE
Sequence of Epidermal growth factor receptor (Homo sapiens), P00533 [L858R,T790M] (P00533 whole entry T790M/L858R, looked up): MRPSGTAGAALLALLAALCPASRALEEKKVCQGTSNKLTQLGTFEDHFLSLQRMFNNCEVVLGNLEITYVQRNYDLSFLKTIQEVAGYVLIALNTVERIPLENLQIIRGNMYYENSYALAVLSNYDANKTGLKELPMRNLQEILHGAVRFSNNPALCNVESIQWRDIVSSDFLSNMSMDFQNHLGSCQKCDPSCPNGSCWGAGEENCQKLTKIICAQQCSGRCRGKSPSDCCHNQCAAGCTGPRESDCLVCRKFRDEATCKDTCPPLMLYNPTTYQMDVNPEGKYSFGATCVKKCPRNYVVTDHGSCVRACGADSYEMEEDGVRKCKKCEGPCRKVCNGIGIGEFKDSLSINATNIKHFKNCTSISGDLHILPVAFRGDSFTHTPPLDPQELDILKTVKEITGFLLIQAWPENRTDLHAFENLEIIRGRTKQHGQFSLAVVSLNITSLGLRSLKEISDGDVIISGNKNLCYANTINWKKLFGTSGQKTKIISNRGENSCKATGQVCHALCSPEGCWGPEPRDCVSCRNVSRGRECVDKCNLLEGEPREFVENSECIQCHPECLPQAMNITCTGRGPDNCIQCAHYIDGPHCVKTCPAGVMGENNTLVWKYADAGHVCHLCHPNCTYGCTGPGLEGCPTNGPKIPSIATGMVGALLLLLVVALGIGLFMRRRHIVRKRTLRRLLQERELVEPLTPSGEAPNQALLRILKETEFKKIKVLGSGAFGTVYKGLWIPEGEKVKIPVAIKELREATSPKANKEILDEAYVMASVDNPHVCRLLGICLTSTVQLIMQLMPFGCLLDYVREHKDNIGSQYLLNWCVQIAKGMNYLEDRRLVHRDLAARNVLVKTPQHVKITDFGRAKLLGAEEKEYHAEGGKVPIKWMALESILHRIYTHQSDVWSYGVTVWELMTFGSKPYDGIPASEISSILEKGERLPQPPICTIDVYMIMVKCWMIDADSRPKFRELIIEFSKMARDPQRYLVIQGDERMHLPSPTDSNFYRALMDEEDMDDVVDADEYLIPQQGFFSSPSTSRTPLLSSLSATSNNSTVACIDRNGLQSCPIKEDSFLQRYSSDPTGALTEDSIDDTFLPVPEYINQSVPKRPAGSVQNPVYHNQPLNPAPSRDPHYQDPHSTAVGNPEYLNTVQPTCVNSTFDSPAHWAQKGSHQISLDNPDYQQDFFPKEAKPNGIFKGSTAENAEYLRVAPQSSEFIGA
Sequence of Protein cereblon/Epidermal growth factor receptor (Homo sapiens) (P00533 25-1210 limits assumed): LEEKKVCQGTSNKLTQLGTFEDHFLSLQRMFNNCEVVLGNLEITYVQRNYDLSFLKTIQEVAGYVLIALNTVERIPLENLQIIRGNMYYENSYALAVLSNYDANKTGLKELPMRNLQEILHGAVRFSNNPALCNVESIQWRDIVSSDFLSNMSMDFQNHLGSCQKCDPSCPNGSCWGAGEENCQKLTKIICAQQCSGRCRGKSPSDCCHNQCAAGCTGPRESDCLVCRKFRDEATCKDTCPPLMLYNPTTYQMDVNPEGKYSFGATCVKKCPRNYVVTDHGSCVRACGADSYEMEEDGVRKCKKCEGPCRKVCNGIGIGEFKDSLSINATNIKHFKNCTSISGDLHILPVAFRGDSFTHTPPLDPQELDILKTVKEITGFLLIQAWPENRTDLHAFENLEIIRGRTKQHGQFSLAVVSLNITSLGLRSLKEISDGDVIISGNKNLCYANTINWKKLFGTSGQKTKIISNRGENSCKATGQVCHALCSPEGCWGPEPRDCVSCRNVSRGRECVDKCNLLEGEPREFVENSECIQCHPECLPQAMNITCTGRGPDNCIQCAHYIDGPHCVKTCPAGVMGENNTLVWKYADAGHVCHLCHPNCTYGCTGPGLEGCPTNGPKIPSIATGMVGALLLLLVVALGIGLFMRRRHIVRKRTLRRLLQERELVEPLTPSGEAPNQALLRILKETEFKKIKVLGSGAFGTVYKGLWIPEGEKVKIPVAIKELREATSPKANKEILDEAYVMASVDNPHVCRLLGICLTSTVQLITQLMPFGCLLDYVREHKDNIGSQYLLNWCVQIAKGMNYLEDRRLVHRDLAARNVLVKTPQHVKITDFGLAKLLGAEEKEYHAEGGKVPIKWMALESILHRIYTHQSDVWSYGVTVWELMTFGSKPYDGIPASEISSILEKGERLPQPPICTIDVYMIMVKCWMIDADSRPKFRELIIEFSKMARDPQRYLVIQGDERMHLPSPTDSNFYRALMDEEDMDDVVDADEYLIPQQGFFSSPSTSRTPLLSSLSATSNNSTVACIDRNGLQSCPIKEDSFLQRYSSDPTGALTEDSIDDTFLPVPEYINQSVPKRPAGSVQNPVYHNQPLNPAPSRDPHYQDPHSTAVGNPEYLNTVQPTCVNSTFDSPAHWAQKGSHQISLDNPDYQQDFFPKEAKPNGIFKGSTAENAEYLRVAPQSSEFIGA
Sequence of Protein cereblon/Epidermal growth factor receptor (Homo sapiens) (Q96SW2 whole entry partner): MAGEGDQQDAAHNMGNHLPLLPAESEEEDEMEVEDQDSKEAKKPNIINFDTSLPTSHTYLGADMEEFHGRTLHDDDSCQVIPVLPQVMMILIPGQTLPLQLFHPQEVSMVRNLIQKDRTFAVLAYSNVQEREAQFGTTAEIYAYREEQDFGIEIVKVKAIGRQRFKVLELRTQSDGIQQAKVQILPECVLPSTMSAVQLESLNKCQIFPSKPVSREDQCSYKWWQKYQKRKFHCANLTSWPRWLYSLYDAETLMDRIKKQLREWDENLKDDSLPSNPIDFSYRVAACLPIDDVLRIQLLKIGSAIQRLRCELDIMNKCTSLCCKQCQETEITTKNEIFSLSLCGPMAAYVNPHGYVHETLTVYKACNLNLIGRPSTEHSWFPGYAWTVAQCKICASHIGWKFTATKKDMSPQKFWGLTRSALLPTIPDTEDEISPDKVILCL

Row | Compound | pIC50 [1] | Activity [2] | Activity [3] | inhibition [4] | inhibition [5] | Activity [6] | Activity [7] [%] | Activity [8] [%] | Activity [9] | Activity [10] | AUC(0-t) at 24 h [11] [ng·h/mL] | AUC(0-inf) [12] [ng·h/mL] | Vd [13] [L/kg]
1 | C#CCN(CCCC(=O)Nc1cccc2c1CN(C1CCC(=O)NC1=O)C2=O)CCN(C)c1cc(OC)c(Nc2nccc(-c3cn(C)c4ccccc34)n2)cc1NC(=O)C=C (stereo not given) | < 4.00 | Non-Toxic | Non-Toxic | Dde | Dde | Active | 0.23 | 0.22 | Dde | Non-Toxic | 483 | 973 | 7.87
2 | C#CCN(CCC(=O)Nc1cccc2c1CN(C1CCC(=O)NC1=O)C2=O)CCN(C)c1cc(OC)c(Nc2nccc(-c3cn(C)c4ccccc34)n2)cc1NC(=O)C=C (stereo not given) | < 4.00 | Non-Toxic | Non-Toxic | Dde | Dde | – | 1.51 | 0.11 | Dde | Non-Toxic | 460 | 1610 | 7.38
